This experiment deals with T1, F508delCFTR (Homo sapiens, UniProt P13569, DEL508-508).
T1 construct: expressed in transfected cells; host or cells: CFBE41o- human lung derived epithelial cells (CFBE41o-F508delCFTR-HRP), doxycycline-inducible
Nature of the experiment: Cell Surface Expression-Horse Radish Peroxidase (CSE-HRP) Assay.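 For EC50 (with co-corrector): co-corrector chromenyl benzoic acid corrector at 2 or 3 µM.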 The experiment is classed as cell-based. The following applies: for Maximum % activity (with co-corrector) / Emax: maximum at any tested concentration; for Emax: read-out: Maximum % activity (without co-corrector). Put shortly: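 Corrector compounds were given as 8-point 3-fold series from 20 or 30 μM, with or without a 2 μM co-corrector, for 18-24 h at 33 °C. Surface HRP was read by luminol luminescence as % of positive control; variable-Hill-slope sigmoidal fitting gave EC50 from triplicate plates.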

The mark [1] stands for this setting: test compound alone, without co-corrector, read-out: EC50 (without co-corrector).
Where [2] appears, read: with co-corrector, read-out: EC50 (with co-corrector).

Where two headings read alike, the source gives them in different places.

T1 sequence (P13569 with tags, fused parts or gaps DEL508-508): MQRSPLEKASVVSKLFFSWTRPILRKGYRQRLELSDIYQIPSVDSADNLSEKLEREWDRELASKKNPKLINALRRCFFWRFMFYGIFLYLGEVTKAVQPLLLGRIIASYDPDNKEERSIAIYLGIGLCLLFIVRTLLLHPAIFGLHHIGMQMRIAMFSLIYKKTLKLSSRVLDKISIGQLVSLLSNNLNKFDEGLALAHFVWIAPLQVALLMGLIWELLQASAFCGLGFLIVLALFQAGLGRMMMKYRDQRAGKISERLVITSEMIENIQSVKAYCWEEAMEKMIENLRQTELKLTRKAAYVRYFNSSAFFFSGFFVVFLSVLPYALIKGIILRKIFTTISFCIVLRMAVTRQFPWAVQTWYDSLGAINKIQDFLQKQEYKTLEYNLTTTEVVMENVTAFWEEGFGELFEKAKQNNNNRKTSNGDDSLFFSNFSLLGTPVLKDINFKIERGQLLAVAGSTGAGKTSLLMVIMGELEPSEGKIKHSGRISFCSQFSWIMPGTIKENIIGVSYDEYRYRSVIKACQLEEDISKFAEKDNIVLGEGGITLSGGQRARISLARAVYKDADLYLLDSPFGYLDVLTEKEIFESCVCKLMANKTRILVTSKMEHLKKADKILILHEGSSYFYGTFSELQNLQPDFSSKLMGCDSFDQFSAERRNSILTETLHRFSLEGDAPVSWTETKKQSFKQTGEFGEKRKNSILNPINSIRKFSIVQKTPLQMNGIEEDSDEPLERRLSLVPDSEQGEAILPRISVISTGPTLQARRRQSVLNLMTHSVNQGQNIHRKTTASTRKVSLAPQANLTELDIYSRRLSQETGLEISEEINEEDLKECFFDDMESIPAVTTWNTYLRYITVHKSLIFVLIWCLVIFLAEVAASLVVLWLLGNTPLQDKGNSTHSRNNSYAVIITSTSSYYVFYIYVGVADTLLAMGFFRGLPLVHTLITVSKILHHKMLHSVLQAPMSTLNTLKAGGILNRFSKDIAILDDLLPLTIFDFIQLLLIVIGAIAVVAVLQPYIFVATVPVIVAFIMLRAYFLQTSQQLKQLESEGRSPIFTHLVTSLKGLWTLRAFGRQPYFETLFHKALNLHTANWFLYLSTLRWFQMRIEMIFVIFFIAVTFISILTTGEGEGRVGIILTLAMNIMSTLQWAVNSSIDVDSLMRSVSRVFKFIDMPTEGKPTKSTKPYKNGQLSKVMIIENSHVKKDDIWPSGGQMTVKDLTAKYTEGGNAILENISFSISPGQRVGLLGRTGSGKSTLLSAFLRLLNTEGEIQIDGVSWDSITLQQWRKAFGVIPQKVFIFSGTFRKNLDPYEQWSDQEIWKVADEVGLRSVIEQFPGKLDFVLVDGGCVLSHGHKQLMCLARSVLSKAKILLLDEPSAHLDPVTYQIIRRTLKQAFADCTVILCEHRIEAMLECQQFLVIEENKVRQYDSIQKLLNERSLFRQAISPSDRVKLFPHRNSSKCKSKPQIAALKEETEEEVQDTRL

For the compound `COC(=O)c1ccc(Cl)cc1S(=O)(=O)NC(=O)C1(c2ccc(Cl)cc2Cl)CC1` [Example III-66, methyl 4-chloro-2-{[l-(2,4-dichlorophenyl)cyclopropane-1-carbonyl]sulfamoyl}benzoate], the EC50 (in general, the concentration needed to bring the measured effect to its halfway point) is, setting by setting: under setting [1], greater than 10 µM; under setting [2], 3 to 10 µM. For the same compound, the “Maximum % activity (with co-corrector)” value (with co-corrector) was “++ (≥150 and <350)”. Also, for the setting “without co-corrector”, the Emax is less than 50%.

Take `O=C(O)c1ccccc1S(=O)(=O)NC(=O)C1(c2ccc(Cl)cc2Cl)CC1` [Example III-67]: the EC50 by setting is: under setting [1], greater than 10 µM; under setting [2], greater than 10 µM. For the same compound, for the setting “with co-corrector”, the “Maximum % activity (with co-corrector)” value was “+ (<150)”. In addition, the Emax (without co-corrector) was less than 50%.

As to `O=C(O)c1ccc(Cl)cc1S(=O)(=O)NC(=O)C1(c2ccc(Cl)cc2Cl)CC1` [Example III-68, 4-chloro-2-{[l-(2,4-dichlorophenyl)cyclopropane-1-carbonyl]sulfamoyl}benzoic acid], the half-maximal effective concentration (EC50) is greater than 10 µM under setting [1] and less than 3 µM under setting [2]. Besides, where the note is “with co-corrector”, the “Maximum % activity (with co-corrector)” value is “+ (<150)”. For the same compound, the Emax (without co-corrector) is less than 50%.

With `O=C(OCc1ccccc1)N1CCC(S(=O)(=O)NC(=O)C2(c3ccc(Cl)c(Cl)c3)CC2)CC1` [Example III-70, benzyl 4-{[1-(3,4-dichlorophenyl)cyclopropane-1-carbonyl]sulfamoyl}piperidine-1-carboxylate], the EC50 reads like this: under setting [1], greater than 10 µM; under setting [2], greater than 10 µM. The “Maximum % activity (with co-corrector)” value (with co-corrector) is “+ (<150)”. Moreover, for the setting “without co-corrector”, the Emax was less than 50%.

On to `O=C(NS(=O)(=O)c1ccccc1)C1(c2cccc(Br)c2)CC1` [Example III-71, N-(benzenesulfonyl)-1-(3-bromophenyl)cyclopropane-1-carboxamide], for which the EC50 is 3 to 10 µM under setting [1] and 3 to 10 µM under setting [2]. Moreover, under “with co-corrector”, the “Maximum % activity (with co-corrector)” value was “+++ (≥350)”. For the same compound, for the setting “without co-corrector”, the Emax fell in the range of 50 to 150%.

In the case of `O=C(N1CCc2ccc(S(=O)(=O)NC(=O)C3(c4cccc(Cl)c4)CC3)cc2C1)C(F)(F)F` [Example III-72, 1-(3-chlorophenyl)-N-[2-(trifluoroacetyl)-1,2,3,4-tetrahydroisoquinoline-7-sulfonyl]cyclopropane-1-carboxamide], the EC50 is greater than 10 µM under setting [1] and greater than 10 µM under setting [2]. Also, the “Maximum % activity (with co-corrector)” value (with co-corrector) was “+ (<150)”. Under “without co-corrector”, the Emax was less than 50%.

As for `O=C(NS(=O)(=O)c1ccc(-n2cccn2)cc1)C1(c2cccc(Cl)c2)CC1` [Example III-73, 1-(3-chlorophenyl)-N-[4-(1H-pyrazol-1-yl)benzene-1-sulfonyl]cyclopropane-1-carboxamide], the EC50 under setting [1] was greater than 10 µM and the EC50 under setting [2] is greater than 10 µM. The “Maximum % activity (with co-corrector)” value (with co-corrector) is on record as “+ (<150)”. In addition, the Emax (without co-corrector) was less than 50%.

`Cc1ccc(S(=O)(=O)NC(=O)C2(c3cccc(Cl)c3)CC2)cc1C` [Example III-74, 1-(3-chlorophenyl)-N-(3,4-dimethylbenzene-1-sulfonyl)cyclopropane-1-carboxamide]: the EC50 runs as follows: under setting [1], greater than 10 µM; under setting [2], greater than 10 µM. For the same compound, the “Maximum % activity (with co-corrector)” value (with co-corrector) is “+ (<150)”. The Emax (without co-corrector) was less than 50%.

`O=C1Cc2cc(S(=O)(=O)NC(=O)C3(c4cccc(Cl)c4)CC3)ccc2N1` [Example III-75, 1-(3-chlorophenyl)-N-(2-oxo-2,3-dihydro-1H-indole-5-sulfonyl)cyclopropane-1-carboxamide]: the EC50 was greater than 10 µM under setting [1] and greater than 10 µM under setting [2]. For the same compound, under “with co-corrector”, the “Maximum % activity (with co-corrector)” value is “+ (<150)”. For the same compound, the Emax (without co-corrector) is less than 50%.

As for `CC(=O)N1CCc2cc(S(=O)(=O)NC(=O)C3(c4cccc(Cl)c4)CC3)ccc21` [Example III-76, N-(1-acetyl-2,3-dihydro-1H-indole-5-sulfonyl)-1-(3-chlorophenyl)cyclopropane-1-carboxamide], the EC50 by setting is: under setting [1], greater than 10 µM; under setting [2], greater than 10 µM. In addition, the “Maximum % activity (with co-corrector)” value (with co-corrector) is given as “+ (<150)”. In addition, under “without co-corrector”, the Emax is less than 50%.

On to `O=C(NS(=O)(=O)C1CCNCC1)C1(c2ccc(Cl)cc2Cl)CC1` [Example III-77, 1-(2.4-dichlorophcnyl)-N-(piperidine-4-sulfonyl)cyclopropane-1-carboxamide], for which the EC50 reads like this: under setting [1], greater than 10 µM; under setting [2], greater than 10 µM. The “Maximum % activity (with co-corrector)” value (with co-corrector) was “+ (<150)”. Further, the Emax (without co-corrector) is less than 50%.

On to `CC(=O)N1CCC(S(=O)(=O)NC(=O)C2(c3ccc(Cl)cc3Cl)CC2)CC1` [Example III-78, N-(1-acetylpiperidine-4-sulfonyl)-1-(2,4-dichlorophenyl)cyclopropane-1-carboxamide], for which the EC50 reads like this: under setting [1], greater than 10 µM; under setting [2], greater than 10 µM. For the same compound, the “Maximum % activity (with co-corrector)” value (with co-corrector) is recorded as “+ (<150)”. Moreover, the Emax (without co-corrector) was less than 50%.

`O=C(CCc1ccccc1)N1CCC(S(=O)(=O)NC(=O)C2(c3ccc(Cl)cc3Cl)CC2)CC1` [Example III-79, 1-(2,4-dichlorophenyl)-N-[1-(3-phenylpropanoyl)piperidine-4-sulfonyl]cyclopropane-1-carboxamide]: the EC50 is greater than 10 µM under setting [1] and 3 to 10 µM under setting [2]. For the same compound, the “Maximum % activity (with co-corrector)” value (with co-corrector) is listed as “+ (<150)”. Also, the Emax (without co-corrector) was less than 50%.

Consider `CC(C)(C)OC(=O)N1CCC(S(=O)(=O)NC(=O)C2(c3ccc(Cl)cc3Cl)CC2)CC1` [Example III-80, tert-butyl 4-{[1-(2,4-dichlorophenyl)cyclopropane-1-carbonyl]sulfamoyl}piperidine-1-carboxylate], for which the EC50 reads like this: under setting [1], greater than 10 µM; under setting [2], greater than 10 µM. For the same compound, the “Maximum % activity (with co-corrector)” value (with co-corrector) was “+ (<150)”. For the setting “without co-corrector”, the Emax was less than 50%.

`COc1cccc(C2(C(=O)NS(=O)(=O)c3ccccc3C)CCOCC2)c1` [Example III-81, 4-(3-methoxyphenyl)-N-(2-methylbenzene-1-sulfonyl)oxane-4-carboxamide]: the EC50 was greater than 10 µM under setting [1] and greater than 10 µM under setting [2]. Also, the “Maximum % activity (with co-corrector)” value (with co-corrector) is “+ (<150)”. The Emax (without co-corrector) is less than 50%.

As to `Cc1cccc(C2(C(=O)NS(=O)(=O)c3ccccc3C)CCOCC2)c1` [Example III-82, N-(2-methylbenzene-1-sulfonyl)-4-(3-methylphenyl)oxane-4-carboxamide], the EC50 reads like this: under setting [1], greater than 10 µM; under setting [2], greater than 10 µM. Moreover, the “Maximum % activity (with co-corrector)” value (with co-corrector) was “+ (<150)”. The Emax (without co-corrector) was less than 50%.

With `Cc1ccccc1S(=O)(=O)NC(=O)C1(c2cccc(Cl)c2)CCCC1` [Example III-83, 1-(3-chlorophenyl)-N-(2-methylbenzene-1-sulfonyl)cyclopentane-1-carboxamide], the EC50 is greater than 10 µM under setting [1] and greater than 10 µM under setting [2]. In addition, the “Maximum % activity (with co-corrector)” value (with co-corrector) is “++ (≥150 and <350)”. Besides, the Emax (without co-corrector) is less than 50%.

As for `Cc1ccc(S(=O)(=O)NC(=O)C2(c3cccc(Cl)c3)CC2)nc1` [Example III-84, 1-(3-chlorophenyl)-N-(5-methylpyridine-2-sulfonyl)cyclopropane-1-carboxamide], the EC50 runs as follows: under setting [1], greater than 10 µM; under setting [2], greater than 10 µM. The “Maximum % activity (with co-corrector)” value (with co-corrector) is reported as “+ (<150)”. Where the note is “without co-corrector”, the Emax is less than 50%.

As to `COc1ccccc1C1(C(=O)NS(=O)(=O)c2ccccc2C)CC1` [Example III-85, 1-(2-methoxyphenyl)-N-(2-methylbenzene-1-sulfonyl)cyclopropane-1-carboxamide], the 50% effective concentration (EC50) is, setting by setting: under setting [1], 3 to 10 µM; under setting [2], 3 to 10 µM. Besides, the “Maximum % activity (with co-corrector)” value (with co-corrector) was “+++ (≥350)”. Further, the Emax (without co-corrector) was in the range of 50 to 150%.

`Cc1ccccc1S(=O)(=O)NC(=O)C1(c2ccc3c(c2)OCO3)CC1` [Example III-86, 1-(2H-1,3-benzodioxol-5-yl)-N-(2-methylbenzene-1-sulfonyl)cyclopropane-1-carboxamide]: the EC50 lay in the range of 3 to 10 µM under setting [1] and 3 to 10 µM under setting [2]. The “Maximum % activity (with co-corrector)” value (with co-corrector) is “++ (≥150 and <350)”. Also, the Emax (without co-corrector) was less than 50%.

`Cc1ccccc1S(=O)(=O)NC(=O)C1(c2ccc(Cl)cc2Cl)CC1` [Example III-87, 1-(2,4-dichlorophenyl)-N-(2-methylbenzene-1-sulfonyl)cyclopropane-1-carboxamide]: the EC50 is, setting by setting: under setting [1], 3 to 10 µM; under setting [2], 3 to 10 µM. Besides, the “Maximum % activity (with co-corrector)” value (with co-corrector) is listed as “+++ (≥350)”. Moreover, the Emax (without co-corrector) lay within 50 to 150%.

Consider `Cc1ccccc1S(=O)(=O)NC(=O)C1(c2ccc(Cl)cc2)CC1` [Example III-88, 1-(4-chlorophenyl)-N-(2-methylbenzene-1-sulfonyl)cyclopropane-1-carboxamide], for which the EC50 under setting [1] is 3 to 10 µM and the EC50 under setting [2] fell in the range of 3 to 10 µM. Also, the “Maximum % activity (with co-corrector)” value (with co-corrector) is “++ (≥150 and <350)”. For the same compound, the Emax (without co-corrector) was less than 50%.

Consider `CC(C)(C)OC(=O)N1CCC(C(=O)NS(=O)(=O)c2cccc3ccccc23)(c2ccc(F)cc2)CC1` [Example III-89, tert-butyl 4-(4-fluorophenyl)-4-[(naphthalene-1-sulfonyl)carbamoyl]piperidine-1-carboxylate], for which the EC50 by setting is: under setting [1], 3 to 10 µM; under setting [2], less than 3 µM. The “Maximum % activity (with co-corrector)” value (with co-corrector) is “++ (≥150 and <350)”. Moreover, the Emax (without co-corrector) is less than 50%.

For `COc1ccc(C2(C(=O)NS(=O)(=O)c3cccc4ccccc34)CCCC2)cc1OC` [Example III-90, 1-(3,4-dimethoxyphenyl)-N-(naphthalene-1-sulfonyl)cyclopentane-1-carboxamide], the EC50 by setting is: under setting [1], greater than 10 µM; under setting [2], greater than 10 µM. Moreover, the “Maximum % activity (with co-corrector)” value (with co-corrector) is “+ (<150)”. Further, where the note is “without co-corrector”, the Emax is less than 50%.
